Article PMC3961306, “Comparison of the Cancer Gene Targeting and Biochemical Selectivities of All Targeted Kinase Inhibitors Approved for Clinical Use” (PLoS ONE, 2014)
Where two headings read alike, the source gives them in different places.

Tests used:
[1] = system: forty-four human cancer cell lines; experiment: Cell proliferation assay (ATPlite, 72 hours) in the 44 cell line Oncolines panel; type: cell-based; settings: Homo sapiens
[2] = molecular target: panel of more than 300 wild-type and mutant kinases (313 kinase panel) (Homo sapiens, UniProt P07947, T348I); experiment: Kinase profiling in a biochemical assay panel (mobility shift assays and ELISA), %-inhibition at 1 μM; selectivity entropy; settings: kinase YES(T348I); compound at 1 μM
[3] = molecular target: panel of more than 300 wild-type and mutant kinases (313 kinase panel) (Homo sapiens, UniProt P09619); experiment: as above; settings: kinase PDGFRβ; 1 μM
[4] = molecular target: panel of more than 300 wild-type and mutant kinases (313 kinase panel) (Homo sapiens, UniProt P11362, V561M); experiment: as above; settings: kinase FGFR1(V561M); compound at 1 μM
[5] = molecular target: panel of more than 300 wild-type and mutant kinases (313 kinase panel) (Homo sapiens, UniProt P15056); experiment: as above; settings: kinase BRAF; 1 μM compound
[6] = molecular target: panel of more than 300 wild-type and mutant kinases (313 kinase panel) (Homo sapiens, UniProt P15056, V600E); experiment: as above; settings: kinase BRAF(V600E); 1 μM compound
[7] = molecular target: panel of more than 300 wild-type and mutant kinases (313 kinase panel) (Homo sapiens, UniProt P22612); experiment: as above; settings: kinase PKACγ; 1 μM

C[C@@H](Oc1cc(-c2cnn(C3CCNCC3)c2)cnc1N)c1c(Cl)ccc(F)c1Cl [crizotinib]
IC50 ([1]; 4-4 cell, read-out: cell panel IC50, J82): 5230 nM | IC50 ([1]; 4-4 cell, read-out: cell panel IC50, PA-1): 888 nM | IC50 ([1]; 4-4 cell, read-out: cell panel IC50, SJCRH30): 1090 nM | IC50 ([1]; 4-4 cell, read-out: cell panel IC50, SR): 44 nM | IC50 ([1]; 769-P, read-out: cell panel IC50, 769-P): 2960 nM | IC50 ([1]; 786-0, read-out: cell panel IC50, 786-0): 3880 nM | IC50 ([1]; A 172, read-out: cell panel IC50, A-172): 1700 nM | IC50 ([1]; A204, read-out: cell panel IC50, A-204): 2460 nM | IC50 ([1]; A498, read-out: cell panel IC50, A-498): 2240 nM | IC50 ([1]; A549, read-out: cell panel IC50, A-549): 1180 nM | IC50 ([1]; A-375, read-out: cell panel IC50, A375): 1080 nM | IC50 ([1]; A-427, read-out: cell panel IC50, A-427): 672 nM | IC50 ([1]; ACHN, read-out: cell panel IC50, ACHN): 2240 nM | IC50 ([1]; AN3-CA, read-out: cell panel IC50, AN3 CA): 1720 nM | IC50 ([1]; AU565, read-out: cell panel IC50, AU-565): 7790 nM | IC50 ([1]; BT-20, read-out: cell panel IC50, BT-20): 12700 nM | IC50 ([1]; BT-549, read-out: cell panel IC50, BT-549): 4890 nM | IC50 ([1]; BXPC-3, read-out: cell panel IC50, BxPC-3): 1390 nM | IC50 ([1]; C-33-A, read-out: cell panel IC50, C-33 A): 3040 nM | IC50 ([1]; CAL-27, read-out: cell panel IC50, CAL 27): 1820 nM | IC50 ([1]; CCRF-CEM, read-out: cell panel IC50, CCRF-CEM): 567 nM | IC50 ([1]; DLD-1, read-out: cell panel IC50, DLD-1): 3000 nM | IC50 ([1]; FaDu, read-out: cell panel IC50, FaDu): 5340 nM | IC50 ([1]; HCT-15, read-out: cell panel IC50, HCT-15): 4840 nM | IC50 ([1]; HCT-116, read-out: cell panel IC50, HCT-116): 1690 nM | IC50 ([1]; Hs-578T, read-out: cell panel IC50, Hs 578T): 2750 nM | IC50 ([1]; Jurkat E6.1, read-out: cell panel IC50, Jurkat E6.1): 1110 nM | IC50 ([1]; K562, read-out: cell panel IC50, K-562): 252 nM | IC50 ([1]; LS174T, read-out: cell panel IC50, LS 174T): 842 nM | IC50 ([1]; LoVo, read-out: cell panel IC50, LoVo): 658 nM | IC50 ([1]; MG-63, read-out: cell panel IC50, MG-63): 1730 nM | IC50 ([1]; MOLT-4, read-out: cell panel IC50, MOLT-4): 347 nM | IC50 ([1]; NCI-H82, read-out: cell panel IC50, NCI-H82): 854 nM | IC50 ([1]; NCI-H460, read-out: cell panel IC50, NCI-H460): 1150 nM | IC50 ([1]; OVCAR-3, read-out: cell panel IC50, OVCAR-3): 4560 nM | IC50 ([1]; RPMI-7951, read-out: cell panel IC50, RPMI-7951): 1530 nM | IC50 ([1]; SHP77, read-out: cell panel IC50, SHP-77): 3120 nM | IC50 ([1]; SK-N-AS, read-out: cell panel IC50, SK-N-AS): 1310 nM | IC50 ([1]; SW48, read-out: cell panel IC50, SW48): 1960 nM | IC50 ([1]; SW480, read-out: cell panel IC50, SW480): 3610 nM | IC50 ([1]; SW-620, read-out: cell panel IC50, SW620): 1330 nM | IC50 ([1]; U2OS, read-out: cell panel IC50, U-2 OS): 1980 nM | IC50 ([1]; U-87 MG, 72 h, read-out: IC50 in cell proliferation assay (table S5 cellpanel data)): 3910 nM | %-inhibition of YES(T348I) [2]: 93% | %-inhibition of PDGFRβ [3]: 18% | %-inhibition of FGFR1(V561M) [4]: 26% | %-inhibition, BRAF [5]: 12% | %-inhibition, BRAF(V600E) [6]: 10% | %-inhibition of PKACγ [7]: -6.52%
